PMC12020277, “Pharmacology and macrophage modulation of HPGDS inhibitor PK007 demonstrate reduced disease severity in DMD-affected muscles of the mdx mouse model” (Skeletal Muscle, 2025)

Target: T1, hematopoietic prostaglandin D2 synthase (HPGDS) (Homo sapiens, UniProt O60760)
T1 construct: human recombinant
Experiment: fluorescence polarisation probe-displacement assay (Cayman kit #[…]), recombinant human HPGDS
Format: binding

T1 sequence (O60760 whole entry): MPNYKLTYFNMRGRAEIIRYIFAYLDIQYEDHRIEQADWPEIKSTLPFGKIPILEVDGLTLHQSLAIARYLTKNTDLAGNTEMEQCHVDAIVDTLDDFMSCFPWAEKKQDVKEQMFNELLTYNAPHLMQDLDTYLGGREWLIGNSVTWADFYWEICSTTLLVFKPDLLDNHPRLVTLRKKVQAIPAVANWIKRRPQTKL

With PK007 as the substance, how does the IC50 read?
Its IC50 is 1540 ± 260 nM.
